# Measurements from patent US10398710B2, “Method for screening regulator of mitochondrial fission” (priority 2015, dated 2019).
# Peptide text beside a SMILES is read from it. * marks the point of attachment. Cbz = O=C(OCc1ccccc1)*; CH2F = FC*
# Columns and labels:
# MCF-7 cells [1] = experiment: WST-1 viability of MCF-7 cells treated with PPD-type ginsenoside compounds; type: cell-based, human; details: MCF-7, 0-200 μg/mL, 24 hours
# Experimental: First, MCF-7 cells, a human breast cancer cell line, were inoculated in a DMEM culture medium containing 10% FBS and 1% penicillin/streptomycin, and were then cultured at conditions of 37° C. and 5% CO2. When the cultured MCF-7 cells were saturated, subculture thereof was followed in a three- to five-day interval.
# The cultured MCF-7 cells were treated with the PPD-type ginsenoside compounds (F2, Rh2, C-K, or PPD) at various concentrations (0, 5, 10, 20, 50, 100, or 200 μg/mL) for 24 hours, and WST-1 analysis was then performed on the cells to measure viability thereof (FIG. 1). The WST-1 analysis was performed by inoculating each cell in a culture medium containing 10% EZ-Cytox and reacting at 37° C. for 1.5 hours, followed by measuring a level of water-soluble formazan dye produced by the viable cells as absorbance (450 nm) and analyzing the same to calculate the cell viability.
# MCF-7 cells [2] = experiment: WST-1 viability of MCF-7 cells pretreated with ginsenoside, then treated with doxorubicin or tamoxifen; type: cell-based; details: for effect on anticancer activity of doxorubicin / anticancer activity with doxorubicin compared to only doxorubicin: 10 μg/mL ginsenoside 12 hours; for effect on anticancer activity of doxorubicin: then 5 μg/mL doxorubicin 12 hours; for anticancer activity with doxorubicin compared to only doxorubicin: then doxorubicin 0-50 μg/mL 24 hours
# Experimental: Specifically, 10 μg/mL of PPD-type ginsenoside compound (F2, Rh2, C-K, or PPD) was added to the MCF-7 cells and was cultured for 12 hours. 20 μM of tamoxifen or 5 μg/mL of doxorubicin was then treated, and 12 hours of culturing was performed. Upon completion of the culturing, viability of MCF-7 cells was compared via WST-1 analysis (FIG. 2a).
# Accordingly, in order to investigate whether C-K or PPD has an effect on a treatment concentration of doxorubicin, 10 μg/mL of the PPD-type ginsenoside compound (C-K or PPD) was added and cultured for 12 hours. Doxorubicin at various concentrations (0, 0.1, 0.5, 1, 2, 5, 10, and 50 μg/mL) was then treated and cultured for 24 hours, followed by comparing viabilities of the MCF-7 cells and also comparing LC50 values calculated therefrom via WST-1 analysis (FIG. 2b).
# MCF-7 cells [3] = experiment: Western blot of apoptosis-related proteins (pJNK, cleaved-PARP, cleaved-caspase-9); type: cell-based, human; details: for level of cleaved-PARP, effect of ginsenoside treatment / level of cleaved-caspase-9, effect of ginsenoside treatment / level of pJNK, effect of ginsenoside treatment: 10 μg/mL ginsenoside with 5 μg/mL doxorubicin
# Experimental: A culture medium containing 10 μg/mL of C-K or PPD was added to the MCF-7 cells, was cultured for 12 hours, and was then replaced with a culture medium containing 10 μg/mL of C-K or PPD and 0 g/mL or 5 μg/mL of doxorubicin, followed by 24 hours of culturing. The cultured cells were destroyed, and Western blot analysis was performed using a pJNK antibody, PARP antibody, cleaved-PARP antibody, caspase-9 antibody, or cleaved-caspase-9 antibody (FIG. 3a).
# Accordingly, a culture medium containing 10 μg/mL of PPD was added to the MCF-7 cells, was cultured for 12 hours, and was then replaced with a culture medium containing 10 μg/mL of PPD and 5 μg/mL of doxorubicin, followed by 0, 0.5, 1, 2, 4, or 6 hours of culturing. Western blot analysis was performed using the cultured cells in the same manner as above (FIG. 3b). As a comparison group, cells cultured in a culture medium containing doxorubicin only was used instead of that containing both PPD and doxorubicin.
# MCF-7 cells [4] = experiment: Effect of PARP or caspase-9 inhibitor on the anticancer effect of doxorubicin with C-K or PPD; type: cell-based, human; details: for anticancer activity of doxorubicin under PARP activity inhibitor with ginsenoside: 10 μg/mL ginsenoside and 5 μg/mL doxorubicin; for anticancer effect of doxorubicin in cells treated with the inhibitor: all control and experiment groups, 5 μg/mL doxorubicin 24 hours
# Experimental: Specifically, a culture medium containing 10 μg/mL of C-K or PPD was added to MCF-7 cells already treated with Z-LEHD-FMK, an inhibitor of caspase-9, or 3-AB, an inhibitor of PARP, was cultured for 12 hours, and was then replaced with a culture medium containing 10 μg/mL of C-K or PPD and 0 g/mL or 5 μg/mL of doxorubicin, followed by 24 hours of culturing. Western blot analysis was performed using the cultured cells in the same manner as above (FIG. 3c).
# MCF-7 cells [5] = experiment: Cytochrome-C release from mitochondria, immunofluorescent staining; type: cell-based, human; details: for increase in level of cytochrome-C release compared to doxorubicin alone / total cells from which cytochrome-C was released, ginsenoside and doxorubicin: 10 μg/mL ginsenoside 24 hours; for increase in level of cytochrome-C release compared to doxorubicin alone: then 5 μg/mL doxorubicin 4 hours; for total cells from which cytochrome-C was released, ginsenoside and doxorubicin: then 5 μg/mL doxorubicin
# Experimental: A culture medium containing 10 μg/mL of C-K or PPD was added to MCF-7 cells, was cultured for 24 hours, and was then replaced with a culture medium containing 5 μg/mL of doxorubicin, followed by 0 or 4 hours of culturing. The cultured cells were fixed by adding 4% paraformaldehyde and were perforated by adding an 0.5% Triton X-100 solution, followed by 30 minutes of immunostaining using a cytochrome-C antibody. After staining, the cells were washed with PBS. Stained second antibodies were heated for 30 minutes and washed with PBS, followed by being recorded with a confocal microscope, to measure a level of fluorescence (FIG. 4a).
# In this regard, whether the level of cytochrome-C release changes depending on treatment time of doxorubicin was investigated. In other words, a culture medium containing 10 μg/mL of C-K or PPD was added to MCF-7 cells, was cultured for 24 hours, and was then replaced with a culture medium containing 5 μg/mL of doxorubicin, followed by 0, 0.5, 1, 2, 4, or 6 hours of culturing. The immunofluorescent staining was performed in the same manner as previously described except the culturing time to measure the number of cytochrome-C released into cytoplasm from mitochondria (FIG. 4b). As a control group, an experiment group untreated with ginsenoside was used.
# MCF-7 cells [6] = experiment: Fluorescence staining of mitochondria with Tom-20; type: cell-based, human; details: 10 μg/mL, 24 hours, Tom-20 staining
# Experimental: In other words, a culture medium containing 10 μg/mL of C-K or PPD was added to MCF-7 cells and was cultured for 24 hours. The cultured cells were fixed by adding 4% paraformaldehyde and were perforated by adding a 0.5% Triton X-100 solution, followed by staining the mitochondria using Tom-20. The stained cells were washed with PBS and were recorded with a confocal microscope to measure a level of fluorescence (FIG. 5a).
# MCF-7 cells [7] = experiment: Western blot of mitochondrial fission- and fusion-related proteins; type: cell-based, human; details: 10 μg/mL, 24 hours
# Experimental: In this regard, Western blot analysis was performed for each cultured cell to compare an expression level of the mitochondrial fission-related proteins (Drp1, Fis1, or OPA-3) and mitochondrial fusion-related proteins (Mfn1. Mfn2, or OPA1) (FIG. 5b).
# MCF-7 cells [8] = experiment: WST-1 viability of siRNA-treated MCF-7 cells treated with doxorubicin or tamoxifen; type: cell-based, human; details: siRNA-treated MCF-7, 5 μM doxorubicin or 20 μM tamoxifen, 24 hours
# Experimental: Meanwhile, each synthesized siRNA was inoculated into MCF-7 cells and was cultured for 12 hours. The cells were again cultured in a standard culture medium in which siRNA is not contained for 48 hours, followed by treating with 5 μM doxorubicin or 20 μM tamoxifen and culturing for 24 hours. After culturing, viabilities of the MCF-7 cells were measured via WST-1 analysis (FIG. 6b). As a control group, cells cultured without treating with doxorubicin or tamoxifen were used.
# [9] = 10 μg/mL PPD and 5 μg/mL doxorubicin, 0-6 hours
Compound,anticancer activity against breast cancer cells (viability) (MCF-7 cells [1]),effect on anticancer activity of doxorubicin (MCF-7 cells [2]),anticancer activity with doxorubicin compared to only doxorubicin (MCF-7 cells [2]),"level of cleaved-PARP, effect of ginsenoside treatment (MCF-7 cells [3]; 24 hours)","level of cleaved-caspase-9, effect of ginsenoside treatment (MCF-7 cells [3]; 24 hours)","level of pJNK, effect of ginsenoside treatment (MCF-7 cells [3]; 24 hours)",anticancer activity of doxorubicin under PARP activity inhibitor with ginsenoside (MCF-7 cells [4]),increase in level of cytochrome-C release compared to doxorubicin alone (MCF-7 cells [5]),"total cells from which cytochrome-C was released, ginsenoside and doxorubicin (MCF-7 cells [5]; after 6 hours)",state of mitochondria compared to negative control group (MCF-7 cells [6]),expression level of mitochondrial fission-related protein OPA-3 (MCF-7 cells [7]),expression level of mitochondrial fusion-related protein Mfn2 (MCF-7 cells [7]),anticancer effect of doxorubicin in cells treated with the inhibitor (MCF-7 cells [4]),anticancer activity on cells with mitochondrial fission (MCF-7 cells [8]),change of anticancer activity depending on siRNA (Mfn2 inhibited compared to Mfn1 inhibited) (MCF-7 cells [8]),other results
"CC(C)=CCC[C@](C)(O[C@@H]1OC(CO)[C@@H](O)C(O)C1O)C1CC[C@]2(C)C1[C@H](O)CC1[C@@]3(C)CCC(O)C(C)(C)C3CC[C@]12C (some centres unmarked) [C-K, compound-K]",relatively excellent anticancer activity,could enhance an anticancer activity by doxorubicin,increased,not affected,noticeably increased,not affected,somewhat recovered,higher,20%,damaged,increased,decreased,,,,
"NC(=O)c1cccc(N)c1 [PARP inhibitor, 3-AB, reference compound]",,,,,,,,,,,,,inhibited,,,
"CC(C)=CCC[C@](C)(O)[C@H]1CC[C@]2(C)[C@@H]1[C@H](O)C[C@@H]1[C@@]3(C)CC[C@H](O)C(C)(C)[C@@H]3CC[C@]12C [PPD, protopanaxadiol]",relatively excellent anticancer activity,could enhance an anticancer activity by doxorubicin,increased,not affected,significantly increased,not affected,somewhat recovered,higher,43%,damaged,increased,decreased,,,,formation of cleaved-PARP over time compared to doxorubicin only (MCF-7 cells [3]; [9]): faster; formation of cleaved-caspase-9 over time compared to doxorubicin only (MCF-7 cells [3]; [9]): faster
"COC(=O)CC[C@H](NC(=O)[C@H](CC(C)C)NC(=O)OCc1ccccc1)C(=O)N[C@@H](Cc1cnc[nH]1)C(=O)N[C@@H](CC(=O)OC)C(=O)CF [caspase-9 inhibitor, Z-LEHD-FMK, reference compound] (Cbz-LE(OMe)HD(OMe)-CH2F)",,,,,,,,,,,,,inhibited,,,
"COc1cccc2c1C(=O)c1c(O)c3c(c(O)c1C2=O)C[C@@](O)(C(=O)CO)C[C@@H]3O[C@H]1C[C@H](N)[C@H](O)[C@H](C)O1 [doxorubicin, reference compound]",,,,,,,,,,,,,,significantly higher anticancer activity,significantly increased,"CC50 (MCF-7 cells [2]; Homo sapiens, MCF7, 24 h, read-out: LC50): ~10 mg/L; level of cleaved-PARP (MCF-7 cells [3]; 5 μg/mL doxorubicin, 24 hours): increased; level of cleaved-caspase-9 (MCF-7 cells [3]; 5 μg/mL doxorubicin, 24 hours): increased; level of pJNK (MCF-7 cells [3]; 5 μg/mL doxorubicin, 24 hours): increased; level of cytochrome-C release compared to no doxorubicin (MCF-7 cells [5]; 5 μg/mL doxorubicin, 4 hours): increased; total cells from which cytochrome-C was released (MCF-7 cells [5]; only doxorubicin 5 μg/mL, after 6 hours): 7%"
CC/C(=C(\c1ccccc1)c1ccc(OCCN(C)C)cc1)c1ccccc1 [tamoxifen],,,,,,,,,,,,,,showed the anticancer activity,no difference,
